Measurements as given in publication doi:10.1101/2021.06.27.450110v1 (bioRxiv, 2021).
Where a SMILES comes first, the peptide text is derived from it. Bridges are numbered along the chain shown (N, C = ends).

Columns and labels:
BMMs = test: Flow cytometry to measure peptide internalization; assay type: cell-based, mouse; conditions: Alexa Fluor 488-labelled peptides, 1 h
red blood cells (RBCs) = test: Red blood cell hemolysis assay; assay type: cell-based, human; conditions: for fold less hemolytic than native tachyplesin I and polyphemusin I: from RBC CC50; for lysis of RBCs: incubation with 128 µM peptide, 37 °C, 1 h
[1] = system: Burkholderia pseudomallei strains MSHR1364, MSHR2154 and MSHR10517; conditions: 24 h
BMMs infected with EC958 = test: Microscopy to determine location of peptides inside infected BMMs; assay type: cell-based, mouse; conditions: 8 µM A488-labelled peptide, 1 h, fixed cells, confocal microscopy
EC958ΔzntA = test: Co-treatment of planktonic bacteria with peptides and zinc; assay type: cell-based, Escherichia coli; conditions: 0.1 mM zinc
EC958 WT = test: as above; assay type: cell-based, Escherichia coli; conditions: 0.1 mM zinc

Row | SMILES | concentration required to internalize 50% of cells compared to tachyplesin I (BMMs) | fold less hemolytic than native tachyplesin I and polyphemusin I (red blood cells (RBCs)) | lysis of RBCs (red blood cells (RBCs)) | Antimicrobial activity: MIC, Burkholderia pseudomallei [1] | also measured
1 | CC(C)[C@@H]1NC(=O)[C@H](CCCNC(=N)N)NC(=O)[C@H](Cc2ccccc2)NC(=O)[C@@H](NC(=O)[C@H](Cc2c[nH]c3ccccc23)NC(=O)[C@@H](N)CCCCN)CSSC[C@@H](C(=O)N[C@@H](CCCNC(=N)N)C(N)=O)NC(=O)[C@H](CCCNC(=N)N)NC(=O)[C@H](CCCNC(=N)N)NC(=O)[C@H](Cc2ccc(O)cc2)NC(=O)[C@@H]2CSSC[C@H](NC1=O)C(=O)N[C@@H](Cc1ccc(O)cc1)C(=O)N[C@@H](CCCNC(=N)N)C(=O)NCC(=O)N[C@@H](CO)C(=O)N2 [[I11S]tachyplesin I] (H-KWCFRVCYRGSCYRRCR-NH2; disulfide 3-16, 7-12) | > ten-fold lower concentrations | at least 3 fold | < 50% |  | 
2 | CC[C@H](C)[C@@H]1NC(=O)CNC(=O)[C@H](CCCNC(=N)N)NC(=O)[C@H](Cc2ccc(O)cc2)NC(=O)[C@@H]2CSSC[C@H](NC1=O)C(=O)N[C@@H](Cc1ccc(O)cc1)C(=O)N[C@@H](CCCNC(=N)N)C(=O)N[C@@H](CCCNC(=N)N)C(=O)N[C@H](C(=O)N[C@@H](CCCNC(=N)N)C(N)=O)CSSC[C@H](NC(=O)[C@H](Cc1c[nH]c3ccccc13)NC(=O)[C@@H](N)CCCCN)C(=O)N[C@@H](Cc1ccccc1)C(=O)N[C@@H](CCCNC(=N)N)C(=O)N[C@@H](C(C)C)C(=O)N2 [Tachyplesin I] (H-KWCFRVCYRGICYRRCR-NH2; disulfide 3-16, 7-12) |  |  |  | > 64 µM | 
3 | CC(C)[C@@H]1NC(=O)[C@H](CCCNC(=N)N)NC(=O)[C@H](Cc2ccccc2)NC(=O)[C@@H](NC(=O)[C@H](Cc2c[nH]c3ccccc23)NC(=O)[C@@H](N)CCCCN)CSSC[C@@H](C(=O)N[C@@H](CCCNC(=N)N)C(N)=O)NC(=O)[C@H](CCCNC(=N)N)NC(=O)[C@H](CCCNC(=N)N)NC(=O)[C@H](Cc2ccc(O)cc2)NC(=O)[C@@H]2CSSC[C@H](NC1=O)C(=O)N[C@@H](Cc1ccc(O)cc1)C(=O)N[C@@H](CCCNC(=N)N)C(=O)NCC(=O)N[C@@H](C)C(=O)N2 [[I11A]tachyplesin I] (H-KWCFRVCYRGACYRRCR-NH2; disulfide 3-16, 7-12) | > ten-fold lower concentrations | at least 3 fold | < 50% |  | intracellular localization in BMMs infected with EC958 (BMMs infected with EC958): locates mainly within vesicles
4 | CC(C)[C@@H]1NC(=O)[C@H](CCCNC(=N)N)NC(=O)[C@H](Cc2ccccc2)NC(=O)[C@@H](NC(=O)[C@H](Cc2c[nH]c3ccccc23)NC(=O)[C@H](CCCNC(=N)N)NC(=O)[C@@H](N)CCCNC(=N)N)CSSC[C@@H](C(=O)N[C@@H](CCCNC(=N)N)C(N)=O)NC(=O)[C@H](CCCCN)NC(=O)[C@H](CCCNC(=N)N)NC(=O)[C@H](Cc2ccc(O)cc2)NC(=O)[C@@H]2CSSC[C@H](NC1=O)C(=O)N[C@@H](Cc1ccc(O)cc1)C(=O)N[C@@H](CCCNC(=N)N)C(=O)NCC(=O)N[C@@H](Cc1ccccc1)C(=O)N2 [Polyphemusin-I] (H-RRWCFRVCYRGFCYRKCR-NH2; disulfide 4-17, 8-13) |  |  |  | > 64 µM | 
5 | O=S(=O)([O-])[O-].[Zn+2] [zinc, zinc sulfate] |  |  |  |  | growth of EC958ΔzntA with zinc alone (EC958ΔzntA): does not significantly inhibit; growth of EC958 WT with zinc alone (EC958 WT): does not significantly inhibit
6 | CC(C)C[C@H](NC(=O)[C@H](CCCNC(=N)N)NC(=O)CNC(=O)CNC(=O)[C@@H](N)CCCNC(=N)N)C(=O)N[C@H]1CSSC[C@@H](C(=O)N[C@H](C(=O)NCC(=O)N[C@@H](CCCNC(=N)N)C(N)=O)C(C)C)NC(=O)[C@H](C(C)C)NC(=O)[C@@H]2CSSC[C@H](NC(=O)[C@H](Cc3ccc(O)cc3)NC1=O)C(=O)N[C@@H](CCCNC(=N)N)C(=O)N[C@@H](CCCNC(=N)N)C(=O)N[C@@H](CCCNC(=N)N)C(=O)N[C@@H](Cc1ccccc1)C(=O)N2 [Protegrin-I] |  |  |  | > 64 µM | 
